# Measurements from US5968514A (priority 1994, dated 1999).
# Several values for one entry are separate records, joined by “and”; a condition that tells them apart may be missing. Equal entries are not always repeated. Entries after “also recorded” stand apart in the source; their conditions may differ. Where two headings read alike, the source gives them in different places. Ends that are not written are not given here.
# Legend:
# [1] = tested on: class II MHC molecules on Raji cells; type: binding, human
# [2] = tested on: class II MHC molecules on Raji cells; type: binding, human; remark: listed apart in the source
# [3] = tested on: human peripheral mononuclear cells; type: cell-based
# Whole PMNC = type: cell-based, human
# [4] = tested on: class II MHC molecules on A20 cells; type: binding, mouse; settings: for IC50: read-out: concentration reducing 125I-MMTV ORF(76-119) binding to A20 cells by 50%
# [5] = tested on: class II MHC molecules (I-A^d and I-E^d) on A20 cells; type: binding, mouse
# [6] = biological target: I-Aβ^b (60-90) peptide of class II MHC β-chain (Mus musculus, UniProt P14483); type: binding, murine
# [7] = tested on: human PMNC, APC and T cell fractions; type: cell-based
# [8] = tested on: class II-negative L cells; type: binding
# Sequence of I-Aβ^b (60-90) peptide of class II MHC β-chain (P14483 87-117): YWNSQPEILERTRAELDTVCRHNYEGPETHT
substance,measurement,setting,value
HIV-1 Nef(31-65): SEQ ID NO. 15 GAASRDLEKHGAITSSNTAATNAACAWLEAQEEEE,reduction of 125I-SEA binding to Raji cells,[1],slight inhibitory effects; also recorded: slightly reduced
staphylococcal enterotoxin A [SEA],inhibition of 125I-HIV-1 Nef(123-160) binding to Raji cells (in words),[2],"binding as well as SEE, but it was more effective than SEC1 or SEB"
same,IC50,[1]; read-out: concentration reducing 125I-SEA binding to Raji cells by 50%,0.2 µM
same,"SI ± sd, stimulus alone",[3],17.6 ± 3.3
same,IFNγ at 24 H,Whole PMNC,55 ± 7
same,IFNγ at 48 h,Whole PMNC,550 ± 141
same,IFNγ at 72 h,Whole PMNC,3000
same,IFNγ at 96 h,Whole PMNC,2000
same,competition with 125I-MMTV ORF(76-119) for binding to A20 cells (in words),[4],a more potent competitor
same,IC50,[4],1.8 µM
same,effectiveness as competitor of 125I-SEA binding relative to MMTV ORF(76-119),[5],20 times
same,competition with 125I-SEA and 125I-MMTV ORF(76-119) for binding to I-Aβ^b (60-90) peptide,[6],competed
same,"SI ± sd, APC",[7],1.6 ± 0.2
same,ratio of the stimulation index for whole PMNC versus reconstituted APC/T cells,[7],~6.78
MMTV ORF(76-119): SEQ ID NO. 1 DSFNNSSVQDYNLNDSENSTFLLGQGPQPTSSYKPHRLCPSEIE,binding of MMTV ORF(76-119) to class II-negative L cell line in comparison to A20 cells,[8],insignificant
same,direct binding of 125I-labelled peptide to A20 cells,[4],did bind
same,IC50,[4],25 µM
same,reduction of 125I-SEA binding to A20 cells,[5],approximately 63%
same,IC50,[5]; read-out: concentration reducing 125I-SEA binding to A20 cells by 50%,20 µM and ~20 µM
same,competition with 125I-SEA and 125I-MMTV ORF(76-119) for binding to I-Aβ^b (60-90) peptide,[6],competed
HIV-1 Nef(123-160): SEQ ID NO. 18 DWQNYTPGPGVRYPLTFGWCYKLVPVEPDKVEEANKGE,IC50,[2]; read-out: concentration reducing 125I-HIV-1 Nef(123-160) binding to Raji cells by 50%,30 µM
same,"SI ± sd, cells cultured with Anti-IgM + peptide",[3]; 96 h,14.1 ± 0.5
same,"SI ± sd, cells cultured with ConA + peptide",[3]; 96 h,4.5 ± 0.4
NKGENTSLLHPVSLHGMDDPEREVLEWRFD [HIV-1 Nef(156-186)],"SI ± sd, cells cultured with ConA + peptide",[3],5.2 ± 1.6
staphylococcal enterotoxin B [SEB],inhibition of 125I-HIV-1 Nef(123-160) binding to Raji cells (in words),[2],it was more effective than SEC1 or SEB
same,competition with 125I-MMTV ORF(76-119) for binding to A20 cells (in words),[4],competed less effectively than SEA
HIV-1 Nef(1-38): SEQ ID NO. 14 MGGKWSKSSVVGWPTVRERMRRAEPAADGVGAASRDLE,reduction of 125I-SEA binding to Raji cells,[1],slight inhibitory effects; also recorded: slightly reduced
Toxic shock syndrome toxin-1 [TSST-1],competition with 125I-MMTV ORF(76-119) for binding to A20 cells (in words),[4],did not compete
concanavalin A [ConA],"SI ± sd, stimulus alone",[3],6.0 ± 0.4
same,IFNγ at 24 H,Whole PMNC,10
same,IFNγ at 48 h,Whole PMNC,350 ± 71
same,IFNγ at 72 h,Whole PMNC,400 ± 141
same,IFNγ at 96 h,Whole PMNC,150 ± 71
same,level of IFNγ production (comparison in words),Whole PMNC,levels much lower than that of Nef or SEA
same,"SI ± sd, APC",[7],0.9 ± 0.1
same,"SI ± sd, APC + T cells",[7],40.7 ± 4.3
